Common to all, as to type: cell-based, human
For one assay, the system named is PAX2 protein. Nature of the assay: Western blot analysis of PAX2 protein. Particulars: DU145, Los 5 μM, U0126 25 μM, PD98059 20 μM, AICAR 250 μM, vs untreated control. How it is done: Briefly, cells were harvested by trypsinization and washed twice with PBS. Lysis buffer was prepared according to the manufacturer's instructions (Sigma), and was then added to the cells. Following a 15 minute incubation period at 4° C. on an orbital shaker, cell lysate were then collected and centrifuged for 10 minutes at 12000×g to pellet cellular debris. The protein-containing supernatant were then collected and quantitated. Next, 25 μg protein extract was loaded onto an 8-16% gradient SDS-PAGE (Novex). Following electrophoresis, proteins were transferred to PVDF membranes, and then blocked with 5% nonfat dry milk in TTBS (0.05% Tween 20 and 100 mM Tris-Cl) for 1 hour. Blots were then probed with rabbit anti-PAX2 primary antibody (Zymed, San Francisco, Calif.) at a 1:2000 dilution. After washing, the membranes were incubated with anti-rabbit antibody conjugated to horseradish peroxidase (HRP) (dilution 1:5000; Sigma), and signal detection was visualized using chemilluminescence reagents (Pierce) on an Alpha Innotech Fluorchem 8900. As a control, blots were stripped and reprobed with mouse anti-β-actin primary antibody (1:5000; Sigma-Aldrich) and HRP— conjugated anti-mouse secondary antibody (1:5000; Sigma-Aldrich) and signal detection was again visualized.
(§1) Western blot analysis was performed as described in Example 2. Blots were then probed with primary antibody (anti-PAX2, -phospho-PAX2, -JNK, -phospho-JNK, -ERK1/2, or -phospho-ERK1/2) (Zymed, San Francisco, Calif.) at 1:1000-2000 dilutions. After washing, the membranes were incubated with anti-rabbit antibody conjugated to horseradish peroxidase (HRP) (dilution 1:5000; Sigma), and signal detection was visualized using chemilluminescence reagents (Pierce) on an Alpha Innotech Fluorchem 8900. As a control, blots were stripped and re-probed with mouse anti-β-actin primary antibody (1:5000; Sigma-Aldrich) and HRP— conjugated anti-mouse secondary antibody (1:5000; Sigma-Aldrich), and signal detection was again visualized.\
Western blot analysis was performed as described in Example 2.

The test system of another assay is PAX2 expression. Nature of the assay: PAX2 expression after AngII or pathway blockers. Particulars: for PAX2 expression, fold increase: PD123319 5 μM; for increase in PAX2 expression relative to untreated hPrEC cells: 10 μM AngII; for PAX2 expression reduced by, compared to untreated control: Los 5 μM.
In a further assay the test system is phospho-STAT3. The assay is described as follows: Western blot of phospho-STAT3. Particulars: DU145; vs untreated control. How it is done:
(§2) Western blot analysis was performed as described in Example 2. […] After washing, the membranes were incubated with anti-rabbit antibody conjugated to horseradish peroxidase (HRP) (dilution 1:5000; Sigma), and signal detection was visualized using chemilluminescence reagents (Pierce) on an Alpha Innotech Fluorchem 8900. As a control, blots were stripped and re-probed with mouse anti-β-actin primary antibody (1:5000; Sigma-Aldrich) and HRP— conjugated anti-mouse secondary antibody (1:5000; Sigma-Aldrich), and signal detection was again visualized.\

The next assay deals with phospho-PAX2. Nature of the assay: Western blot of phospho-PAX2. Particulars: DU145. How it is done: as §2
For a further assay, the system named is phospho-JNK. The assay is described as follows: Western blot of phospho-JNK. Particulars: DU145. How it is done:
as §2

The next assay relates to DEFB1. The assay is described as follows: QRT-PCR of DEFB1 (hBD-1) expression. The settings on record: for decrease in DEFB1 expression relative to untreated hPrEC cells: 10 μM AngII. The procedure: Briefly, total RNA was isolated using the SV Total RNA Isolation System (Promega, Madison, Wis.) from approximately 1×10^6 cells harvested by trypsinizing. Cells were lysed and total RNA was isolated by centrifugation through spin columns. For cells collected by LCM, total RNA was isolated using the PicoPure RNA Isolation Kit (Arcturus Biosciences, Mt. View, Calif.) following the manufacturer's protocol. Total RNA (0.5 μg per reaction) from both sources was reverse transcribed into cDNA utilizing random primers (Promega). AMV Reverse Transcriptase II enzyme (500 units per reaction; Promega) was used for first strand synthesis and Tfl DNA Polymerase for second strand synthesis (500 units per reaction; Promega) as per the manufacturer's protocol. In each case, 50 pg of cDNA was used per ensuing PCR reaction. Two-step QRT-PCR was performed on cDNA generated using the MultiScribe Reverse Transcripatase from the TaqMan Reverse Transcription System and the SYBR® Green PCR Master Mix (Applied Biosystems).
Forty cycles of PCR were performed under standard conditions using an annealing temperature of 56° C. In addition, β-actin (Table 2) was amplified as a housekeeping gene to normalize the initial content of total cDNA. […]
Quantitative real-time RT-PCR was performed as described in Example 1 to verify changes in gene expression following PAX2 knockdown in PC3 and DU145 prostate cancer cell lines and the hPrEC normal prostate epithelial cells. […] Quantification was determined by the cycle number where exponential amplification began (threshold value) and averaged from the values obtained from the triplicate repeats. […] Relative expression was calculated as the ratio between each genes and GAPDH. […]
QRT-PCR was performed as previously described (Gibson et al., 2007). […] Gene expression in benign prostate tissue samples was calculated as the expression ratio compared to β-actin. Levels of hBD-1 expression in malignant prostate tissue, hPREC prostate primary culture, and prostate cancer cell lines before and after induction were calculated relative to the average level of hBD-1 expression in hPrEC cells. […]

The next assay concerns DU145. Nature of the assay: Thymidine incorporation, DU145. The procedure:
Proliferation of cells was determined by [3H] thymidine ribotide ([3H] TdR) incorporation into DNA. 0.5×10^6 cells/well of suspension DU145 cells were plated in their appropriate media. Cells were incubated for 72 h with or without the presence of AngII at the indicated concentrations. Cells were exposed to 37 kBq/ml [methyl-3H] thymidine in the same medium for 6 h. The adherent cells were fixed by 5% trichloroacetic acid and lysed in SDS/NaOH lysis buffer overnight. Radioactivity was measured by Beckman LS3801 liquid scintillation counter (Canada). Suspension cell cultures were harvested by cell harvester (Packard instrument Co., Meriden, Conn.), and radioactivity was measured by 1450 microbeta liquid scintillation counter (PerkinElmer Life Sciences).

The test system of the next assay is phospho-ERK 1/2. The assay is described as follows: Western blot of phospho-ERK1/2. Particulars: DU145, Los. How it is done:
as §1

For another assay, the system named is ERK. The assay is described as follows: Western blot of ERK protein. Particulars: DU145; Los. How it is done: as §1
Where [1] appears, read: DU145, U0126 25 μM, PD98059 20 μM.

Entries after “also recorded” stand apart in the source; their conditions may differ.

With `N#CC(=C(/N)Sc1ccccc1N)/C(C#N)=C(\N)Sc1ccccc1N` [U0126], the PAX2 protein levels result in the assay with PAX2 protein is reported as “suppress PAX2 protein levels”. Besides, the PAX2 expression entry in the assay with PAX2 expression (setting [1]) was “significant reduction of PAX2 expression”. The phospho-STAT3 protein levels entry in the assay with phospho-STAT3 is reported as “reduced phospho-STAT3 protein levels; also recorded: suppress phospho-STAT3 protein levels”. Besides, the phospho-PAX2 protein levels entry in the assay on phospho-PAX2 is “significant decrease or suppression; also recorded: suppress phospho-PAX2 protein expression levels”. The phospho-JNK protein levels result with phospho-JNK is given as “did not decrease; also recorded: failed to decrease phospho-JNK protein levels”.

Take `Cc1cc(Cn2cnc3c2C[C@@H](C(=O)O)N(C(=O)C(c2ccccc2)c2ccccc2)C3)ccc1N(C)C` [PD123319]: the “PAX2 expression, fold increase” value in the assay on PAX2 expression (DU145, 48 hours) was 7 fold; in the assay on PAX2 expression (DU145, 96 hours) it was 8 fold.

For `COc1cccc(-c2cc(=O)c3ccccc3o2)c1N` [PD98059], the PAX2 protein levels result in the assay on PAX2 protein is given as “suppress PAX2 protein levels”. The PAX2 expression entry with PAX2 expression (setting [1]) is listed as “decreased PAX2”. The phospho-STAT3 protein levels result in the assay with phospho-STAT3 is “reduced phospho-STAT3 protein levels; also recorded: suppress phospho-STAT3 protein levels”. Further, in the assay on phospho-PAX2, the phospho-PAX2 protein levels result was “significant decrease or suppression; also recorded: suppress phospho-PAX2 protein expression levels”.

For “Angiotensin II (DRVYIHPF; Angiotensin-2; UniProt P01019 25-32, looked up) [AngII]”, the figures for the “decrease in DEFB1 expression relative to untreated hPrEC cells” value with DEFB1 (72 hours) and with DEFB1 (96 hours) were 35% and 50%, respectively. Further, the DEFB1 expression levels result in the assay on DEFB1 (hPrEC, AngII (FIG. 25 legend)) is “decreases DEFB1 expression levels”. Besides, in the assay with PAX2 expression (DU145, AngII treatment over 30 min to 48 hour), the PAX2 expression entry is given as “progressively increased over time”. Moreover, the “increase in PAX2 expression relative to untreated hPrEC cells” value in the assay on PAX2 expression (hPrEC, 72 hours) was 66%; in the assay with PAX2 expression (hPrEC, 96 hours) it was 79%. For the same compound, in the assay with PAX2 expression (hPrEC, AngII (FIG. 25 legend)), the PAX2 expression levels result was “increases PAX2 expression levels”. Moreover, in the assay with PAX2 expression (hPrEC, AngII, 72 hours), the “PAX2 expression as % of PAX2 levels in PC3 cells” value came to 77%. Also, the “PAX2 expression as % of PAX2 expression in PC3 cells” value in the assay on PAX2 expression (hPrEC, AngII, 96 hours) was 89%. The proliferation rate entry in the assay on DU145 (AngII, 72 h) is given as “two- to three-fold increase; also recorded: increases DU145 cell proliferation”.

On to `NC(=O)c1ncn([C@@H]2O[C@H](CO)[C@@H](O)[C@H]2O)c1N` [AICAR, 5-Aminoimidazole-4-carboxamide-1-β-4-ribofuranoside], for which the PAX2 protein levels result in the assay on PAX2 protein was “suppression of PAX2 expression; also recorded: suppress PAX2 protein levels”. In the assay with phospho-STAT3, the phospho-STAT3 protein levels entry was “suppressed; also recorded: suppress phospho-STAT3 protein levels”. Besides, the phospho-PAX2 protein levels result with phospho-PAX2 is recorded as “suppression; also recorded: suppress phospho-PAX2 protein expression levels”.

On to `CCCCc1nc(Cl)c(CO)n1Cc1ccc(-c2ccccc2-c2nn[nH]n2)cc1` [Los, Losartan], for which the PAX2 protein levels entry with PAX2 protein is listed as “significant reduction of PAX2 expression”; in the assay on PAX2 protein (listed as Losartan), “suppress PAX2 protein levels”. Moreover, the “PAX2 expression reduced by, compared to untreated control” value came to 37% in the assay on PAX2 expression (DU145, 48 hours) and 50% in the assay on PAX2 expression (DU145, 72 hours). Also, in the assay with PAX2 expression (DU145, Los (FIG. 21 legend)), the “effect of AngII on PAX2 expression” value is recorded as “blocks the effect of Angiotensin II”. Besides, the “proliferation rate decreased by” value in the assay on DU145 (Los) worked out at 50%. The “effect of AngII on proliferation” value in the assay on DU145 (pre-treating with Los for 30 min) was “suppressed the effect of AngII on proliferation”. Also, the phospho-ERK protein level result is “reduced the amount of phospho-ERK” in the assay with phospho-ERK 1/2 and “suppresses phospho-ERK 1/2” in the assay with phospho-ERK 1/2 (listed as Losartan). Further, the ERK protein levels entry in the assay on ERK was “no effect”. The phospho-STAT3 protein levels result in the assay with phospho-STAT3 was “reduced phospho-STAT3 protein levels; also recorded: suppress phospho-STAT3 protein levels”. Further, the phospho-PAX2 protein levels result in the assay on phospho-PAX2 is on record as “significant decrease or suppression; also recorded: suppress phospho-PAX2 protein expression levels”. Moreover, in the assay on phospho-JNK, the phospho-JNK protein levels result is “did not decrease; also recorded: failed to decrease phospho-JNK protein levels”.
